Entries after “also recorded” stand apart in the source; their conditions may differ.
Assays:
[1] = system: ATG4B-mediated basal autophagy in F508del-CFTR-expressing CFBE41o– cells; assay: Labeling of autophagic vacuoles with monodansylcadaverine (MDC); assay type: cell-based, human; conditions: test compounds 5 μM 24 h; torin-1 20 nM and SAR-405 2 μM in the last 3 h
Text: To further support our hypothesis that CFTR rescue following treatment with test compounds was indeed due to RNF5 inhibition, we considered additional biological processes known to be regulated by RNF5 ligase activity. To this aim, we focused our attention on ATG4B, a known regulator of basal autophagy, whose degradation is mediated by RNF5 activity.[54]In vivo ubiquitination experiments previously confirmed that inh-2 inhibits ATG4B degradation, thus increasing the basal level of autophagy.[40] […] We thus evaluated the effect of inh-2 analogues on induction of the autophagy pathway. To this aim, we monitored the formation of autophagic vacuoles in F508del-CFTR-expressing CFBE41o^– cells (Figure 8) by using the autolysosome marker monodansylcadaverine (MDC). MDC accumulates inside autophagosomes. After fusion of autophagosomes with lysosomes, MDC fluorescence increases due to the acidic environment.[55] Therefore, F508del-CFTR-expressing CFBE41o^– cells were treated for 24 h with test compounds (5 μM), VX-809 (1 μM), or DMSO alone (vehicle). In the last 3 h of incubation, we added torin-1 (20 nM), a known autophagy inducer, and SAR-405 (2 μM), a potent inhibitor of the autophagic pathway. The cells were then loaded with MDC and evaluated by high-content confocal imaging to detect signal spots (corresponding to autophagic vacuoles) in each cell.
CFBE41o^– cells stably expressing F508del-CFTR and the HS-YFP were plated (50,000 cells/well) on good-quality clear-bottom 96-well black microplates suitable for high-content imaging. After 24 h, cells were treated with test compounds or DMSO (as the negative control). […] After 24 h, cells were incubated with 50 μM MDC (Sigma-Aldrich) in PBS at 37 °C for 10 min.[62] After incubation, cells were washed three times with PBS and immediately analyzed. High-content imaging and data analysis were performed using the Opera Phenix (PerkinElmer) high-content screening system. Wells were imaged in confocal mode using a 40× water-immersion objective. The MDC signal was laser-excited at 405 nm, and the emission wavelengths were collected between 435 and 550 nm. Data analysis of MDC spot number was performed using the Harmony software (ver 4.5) of the Opera Phenix high-content system. Data are expressed as means ± SEM, n = 3 independent experiments. Statistical significance was tested by parametric ANOVA followed by the Dunnet multiple comparisons test (all groups against the control group).

[2] = biological target: T1, F508del-CFTR in CFBE41o– cells (Homo sapiens, UniProt Q99942); parameters: method as in PMID 29754957; conditions: cited from earlier work
T1 sequence (Q99942 2-180): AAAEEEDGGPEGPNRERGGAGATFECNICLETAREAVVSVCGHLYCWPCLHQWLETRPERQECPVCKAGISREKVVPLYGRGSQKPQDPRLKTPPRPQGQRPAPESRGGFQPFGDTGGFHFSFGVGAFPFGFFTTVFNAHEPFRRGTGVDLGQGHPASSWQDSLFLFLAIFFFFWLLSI
T1 sequence (P13569 with tags, fused parts or gaps DEL508-508 partner): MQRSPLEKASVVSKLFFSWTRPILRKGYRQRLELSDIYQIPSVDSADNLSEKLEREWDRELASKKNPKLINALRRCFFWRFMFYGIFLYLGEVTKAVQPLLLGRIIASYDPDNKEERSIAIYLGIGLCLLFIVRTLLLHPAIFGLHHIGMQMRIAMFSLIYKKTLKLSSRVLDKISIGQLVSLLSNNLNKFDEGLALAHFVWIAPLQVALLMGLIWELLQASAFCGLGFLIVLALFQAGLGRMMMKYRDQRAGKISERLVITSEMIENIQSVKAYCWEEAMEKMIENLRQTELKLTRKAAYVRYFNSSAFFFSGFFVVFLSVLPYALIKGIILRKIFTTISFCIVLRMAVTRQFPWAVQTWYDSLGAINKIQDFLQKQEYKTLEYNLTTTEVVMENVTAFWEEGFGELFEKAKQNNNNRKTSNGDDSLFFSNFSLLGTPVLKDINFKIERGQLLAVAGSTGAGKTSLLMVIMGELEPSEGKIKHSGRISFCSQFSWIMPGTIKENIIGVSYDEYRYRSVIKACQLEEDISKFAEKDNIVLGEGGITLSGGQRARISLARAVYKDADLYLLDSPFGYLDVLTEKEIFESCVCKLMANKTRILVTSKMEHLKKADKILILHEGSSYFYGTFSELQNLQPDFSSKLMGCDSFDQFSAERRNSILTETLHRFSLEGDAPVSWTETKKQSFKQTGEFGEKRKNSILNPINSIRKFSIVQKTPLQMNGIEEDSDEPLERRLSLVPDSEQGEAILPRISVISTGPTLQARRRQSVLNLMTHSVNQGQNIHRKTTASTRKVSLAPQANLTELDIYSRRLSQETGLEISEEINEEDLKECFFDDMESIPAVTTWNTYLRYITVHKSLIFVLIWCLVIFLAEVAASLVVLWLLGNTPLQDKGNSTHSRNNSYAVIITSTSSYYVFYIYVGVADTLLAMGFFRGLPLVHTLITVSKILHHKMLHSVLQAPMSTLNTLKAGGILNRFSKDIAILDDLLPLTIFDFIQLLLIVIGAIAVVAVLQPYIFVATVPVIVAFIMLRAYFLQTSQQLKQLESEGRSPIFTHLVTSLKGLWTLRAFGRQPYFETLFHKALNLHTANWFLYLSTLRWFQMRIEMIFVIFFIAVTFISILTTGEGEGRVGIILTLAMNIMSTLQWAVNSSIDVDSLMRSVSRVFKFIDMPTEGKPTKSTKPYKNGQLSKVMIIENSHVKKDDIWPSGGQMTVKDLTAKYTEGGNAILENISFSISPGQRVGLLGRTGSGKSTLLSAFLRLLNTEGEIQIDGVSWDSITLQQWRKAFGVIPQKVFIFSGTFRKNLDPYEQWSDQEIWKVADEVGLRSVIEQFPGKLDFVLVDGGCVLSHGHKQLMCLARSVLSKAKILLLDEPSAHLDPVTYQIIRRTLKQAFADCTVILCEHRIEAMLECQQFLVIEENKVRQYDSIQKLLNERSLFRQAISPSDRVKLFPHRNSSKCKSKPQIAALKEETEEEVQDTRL

[3] = Solubility and aggregation in PBS buffer by NMR (SPAM filter, 1H 1D and WaterLOGSY); assay type: physicochemical; conditions: PBS pH 7.5, 1 μM ZnCl2, 1 mM DTT, 10% D2O, 1% DMSO-d6; for solubility: PBS buffer, aqueous buffer, kinetic from dmso stock, theoretical concentration 20 μM, read-out: solubility in PBS buffer by NMR, 20 μM; for aggregation in PBS buffer by NMR: WaterLOGSY; for solubility at 50 µM: theoretical concentration 50 μM; for solubility at 100 µM: theoretical concentration 100 μM
Text: Under these circumstances, it was decided to explore the solubility of all the synthetized compounds, regardless of their biological activities, to find a suitable candidate for the validation of our working hypothesis, i.e., that the compounds exert their activities by directly binding to RNF5. For that, we first calculated the predicted octanol/water partition coefficient (log Po/w) and the predicted aqueous solubility (log S) of all the analogues by QikProp (Schrödinger Release 2022-1: QikProp, Schrödinger, LLC, New York, NY, 2021, Table S1). […] To shrink down the number of compounds for solubility experiments, just the ones that had −2.0 < log Po/w < 6 and −6.5 < log S <0.5 values were selected. Among them, the PBS solubility was determined for five representative analogues: (i) 12 and 29 bearing different substituents on the benzyl group A; (ii) 34 and 40 showing the replacement of rings B and C with pyridine-4-yl moieties; (iii) 42 in which the N-phenylbenzamidine portion was replaced with a pyridine-2-yl moiety (Table 1).
All the NMR experiments were recorded at 298 K using a 5 mm CryoProbe QCI ^1H/^19F–^13C/^15N–D quadruple resonance, a shielded z-gradient coil, and an automatic sample changer SampleJet NMR system with temperature control. The solubility of the compounds were evaluated by ^1H 1D experiments and aggregation by WaterLOGSY, testing the compounds in buffer PBS pH 7,5, 1 μM ZnCl2, 1 mM DTT, 10% D2O (for the lock signal), and 1% DMSO-d6 at the theoretical concentrations of 20, 50, and 100 μM in the presence of 200 μM 4-trifluoromethyl benzoic acid (internal reference). For all samples, a 1D ^1H NMR experiment was recorded, the water suppression was obtained using the standard NOESY (nuclear Overhauser effect spectroscopy) preset Bruker pulse sequence, with 64k data points, a spectral width (sw) of 30 ppm, 64 scans, acquisition time (aq) of 1.835 s, a relaxation delay (d1) of 4 s, and a mixing time of 10 ms. […] The data were multiplied by an exponential window function with 1 Hz line broadening prior to Fourier transformation. For NMR binding experiments, the compounds were tested at 50 μM in buffer PBS pH 7.5, 1 μM ZnCl2, 1 mM DTT, 10% D2O (for the lock signal), and 1% DMSO-d6 in the absence and in the presence of 3 μM RNF5. WaterLOGSY experiments were recorded with the same parameters used in solubility assays, but with a higher number of scans (512); STD experiments were recorded with 128 scans, with two on (0.7 and 1 ppm) and one off (−50 ppm) resonance spectra, a Gaussian-shaped train pulse of 50 ms each was employed, with a total saturation time of the protein envelope of 5, 3, 2, 1.5, 1, or 0.5 s. A T1ρ filter of 2 ms was employed in STD experiments to eliminate the background signals from the protein. The STD spectrum was obtained by subtraction of the on-resonance spectrum from the off-resonance spectrum. Subtraction was performed by phase cycling to minimize artifacts arising from magnet and temperature instabilities.

CFBE41o– cells = assay: Apoptosis assay (Hoechst 33342 / propidium iodide, high-content imaging); assay type: cell-based, human; conditions: 24 h, 100 μM
Method: We performed a preliminary evaluation of the effect of chronic treatment with selected analogues on the proliferation and apoptosis of CFBE41o^– cells (Figure 7). Indeed, RNF5 can modulate cell motility and proliferation by regulating paxillin ubiquitylation and thus its degradation.[53] For the proliferation assay, CFBE41o^– cells stably co-expressing F508del-CFTR and the HS-YFP were treated with test compounds (5 μM), VX-809 (1 μM), or vehicle alone (DMSO) for 48 h. Cell proliferation was then monitored by measuring the area covered by the cells based on the YFP signal. For the apoptosis assay, 24 h after plating, CFBE41o^– cells stably expressing F508del-CFTR were treated with test compounds (5, 20, and 100 μM), VX-809 (1 μM), MG132 (50 μM), or vehicle alone (DMSO) for 24 h. Cell nuclei were then counterstained with Hoechst 33342 and propidium iodide to visualize the total and apoptotic cell count, respectively, and imaged by using an Opera Phenix high-content screening system.
CFBE41o^– cells stably expressing F508del-CFTR and the HS-YFP were plated at a low density (5000 cell/well) on 96-well plates suitable for high-content imaging. […] Cell proliferation was monitored (by exploiting the YFP signal to determine the area covered by cells) for 48 h using the Opera Phenix (PerkinElmer) high-content screening system. […] Data are expressed as means ± SEM, n = 6. […]

[4] = biological target: T1, F508del-CFTR in CFBE41o– cells; assay: HS-YFP microfluorimetric assay of F508del-CFTR rescue (corrector activity); assay type: cell-based; conditions: CFBE41o– cells co-expressing F508del-CFTR and HS-YFP, 24 h treatment, Figure 5
Method: As a primary screen, the new thiadiazole derivatives 1–46 (Table 1) were tested for their ability to rescue the F508del-CFTR trafficking defect in CFBE41o^– cells, stably co-expressing F508del-CFTR and the HS-YFP (Figure 5). This cell line has been extensively used by our group, in combination with the microfluorimetric assay based on the HS-YFP, to identify and characterize many CFTR correctors.[39],[47] This assay relies on the hypothesis that RNF5 inhibition results in increased mutant CFTR processing and activity. Therefore, it can easily identify putative RNF5 inhibitors, but not other types of RNF5-binding compounds that could have no effect or have a negative effect on CFTR function, such as RNF5 activators (see analog-1). Thus, we opted for this assay as our primary aim was the identification of RNF5 inhibitors as a possible therapeutic strategy in CF. Twenty-four hours after seeding on 96-well plates, CFBE41o^– cells stably expressing F508del-CFTR and the HS-YFP were treated with test compounds at the desired concentration, one compound per well. Cells treated with vehicle alone (DMSO) and with corrector VX-809 (1 μM), respectively, served as negative and positive controls. At the time of the assay, cells were washed with PBS containing (in […]) 137 NaCl, 2.7 KCl, 8.1 Na2HPO4, 1.5 KH2PO4, 1 CaCl2, and 0.5 MgCl2. Cells were then incubated for 25 min with […] of PBS plus forskolin (20 μM) and VX-770 (1 μM) to maximally stimulate F508del-CFTR. Cells were then transferred to a microplate reader (FluoStar Galaxy; BMG Labtech, Offenburg, Germany) for CFTR activity determination. The plate reader was equipped with high-quality excitation (HQ500/20X: 500 ± 10 nm) and emission (HQ535/30M: 535 ± 15 nm) filters for YFP (Chroma Technology). Each assay comprised a continuous 14 s fluorescence reading and 2 s before and 12 s after injection of […] of an iodide-containing solution (PBS with Cl^– replaced by I^–; final I^– concentration […]). Data were normalized to the initial background-subtracted fluorescence. To determine the I^– influx rate, the final 11 s of the data for each well was fitted with an exponential function to extrapolate initial slope (dF/dt). Reproducibility of results was confirmed by performing three independent experiments. CFBE41o^– cells co-expressing F508del-CFTR and the HS-YFP were reverse-transfected with 50 nM (final concentration) siRNAs (Stealth, Life Technologies) in the presence of lipofectamine 2000 as a transfection agent. The following day, the medium was changed, and the cells were incubated at 37 °C for additional 24 h treated with test compounds at the desired concentration, prior to processing the cells for the YFP-based functional assay.

In the case of `Cc1ns/c(=N\C(=N\c2ccccc2)c2ccccc2)n1-c1ccccc1` [analog-1, reference compound], the “number of autophagic vacuoles (MDC signal spots)” value [1] is given as “significantly decreased”, the “CFTR corrector activity (in words)” value [2] is given as “no activity as a CFTR corrector; also recorded: lack of CFTR corrector activity” and the solubility [3] is given as under 5 µM. For the same compound, the “aggregation in PBS buffer by NMR” value [3] was “no”, the solubility at 50 µM [3] was under 5 µM and the solubility at 100 µM [3] was under 5 µM.
For `Cc1ns/c(=N\C(=N\c2ccccc2)c2ccccc2)n1Cc1cccc(O)c1` [Compound 17, (E)-N-((Z)-4-(3-Hydroxybenzyl)-3-methyl-1,2,4-thiadiazol-5(4H)-ylidene)-N′-phenylbenzimidamide], the cell apoptosis (CFBE41o– cells) was “markedly increased cell apoptosis”, the solubility [3] was under 5 µM and the “aggregation in PBS buffer by NMR” value [3] was “no”. The solubility at 50 µM [3] was under 5 µM, the solubility at 100 µM [3] was under 5 µM and the “F508del-CFTR corrector activity compared with inh-2 (CFTR activity, primary screen)” value [4] was “increased activity”.

— article PMC10388311, “Innovative Strategy toward Mutant CFTR Rescue in Cystic Fibrosis: Design and Synthesis of Thiadiazole Inhibitors of the E3 Ligase RNF5” (Journal of Medicinal Chemistry, 2023)
